In patent US9315544B2, “Method of treating eosinophilia by administering an immunomodulating peptide” (National Tsing Hua University, priority 2012, dated 2016):

How the values were obtained:
[1] = tested on: bronchial epithelial cell; conditions: cited from earlier work
human lung cancer H460 = experiment: Transwell migration assay, H460; format: cell-based; conditions: 12.5 μM CMP pretreatment 30 min, 18 hours
Experimental: FIG. 10 illustrates Tumor migration inhibition by CMP. A549, H460 and mouse colon cancer cells were incubated with CMP at 37° C. for 30 min before adding to the top chamber of transwell membranes in 24-well dishes at a density of 2×10^4 cells/well. Data represented the mean±S.E. of triplicate samples from a representative experiment. The experiment was repeated at least three times with similar results
Cancer cell inhibition by CMP was performed in a 24-well Transwell chamber consisting of a cell culture insert (6.4 mm diameter, 8-1 μm pore polyethylene tetraphtalate membrane, [Becton Dickinson]) set in each well of a 24-well companion plate (Becton Dickinson). Briefly, 3×10^4 cancer cells were suspended and pretreated with 5 and 12.5 μM CMP for 30 min in a total volume of 200 μL. Cell suspensions were inoculated into the upper chamber of an insert, 5% fetal bovine serum (FBS) in medium as a chemoattractant was added to the plate well in the bottom chamber, and incubated for 18 hours in a humidified incubator at 37° C. with 5% CO2. The non-migratory cells on the upper membrane surface were removed with a cotton swab, and the migratory cells attached to the lower membrane surface were fixed with 4% paraformaldehyde and stained with 0.2% crystal violet. The number of migrated cells was counted in four randomly selected high power fields under microscope. […]

mite-specific IgE = experiment: Serum mite-specific IgE by ELISA; format: in vivo, BALB/c mouse
Source text: (§1) FIG. 4 illustrates experimental design. All groups except control group were immunized with mite crude extract allergen on days 1 and 8, then mite crude extract allergen intratracheally on day 15 in all mite treated group, BALB/c mouse were divided into six groups (1) control group (PBS), (2) mites delivered intratracheally (mIT, mite on day 15) alone, (3) CMP intranasal (eIN, CMP on days 1 to 22) alone, (4) preventive-treatment group (eIN+mIT, CMP on days 1 to 14, mite on day 15) (5) therapy-treatment group (mIT+eIN, mite on day 15, CMP on days 15 to 22), and (6) preventive- and therapeutic-treatment group (eIN+mIT+eIN, CMP on days 1 to 22, mite on day 15).
FIG. 8 illustrates inhibitory effect of CMP on serum IgE level. […] Levels of serum Derp-specific IgE were measured by enzyme-linked immunosorbent assay (ELISA). Each result was expressed as the mean±S.D., n=4. *, P<0.05, **, P<0.01. […]
Mite protein (5 μg) was coated on the plated at 4° C. overnight. […] The levels of serum mite-specific IgE were measured by enzyme-linked immunosorbent assay (ELISA).
To further analyze therapeutic effect of CMP on mite sensitization, serum mite-specific IgE levels in mice were measured from all six treatment groups. […]

[2] = tested on: inflammatory cell recruitment into the airways; experiment: Differential cell counts in bronchoalveolar lavage fluid (BALF); format: in vivo, BALB/c mouse
Source text: as §1
FIG. 7 illustrates inhibitory effect of CMP on cell response in bronchoalveolar lavage fluid (BALF). BALF were collected from all experimental groups of mice. Cell populations were identified on air-dried cytocentrifuged smears after staining with Diff-Quuick stain. Differential cell counts were performed on a minimum of 300 cells to identify macrophages, eosinophils, segment or lymphocytes. Data represent one of three independent experiments. Each result was expressed as the mean±S.D., n=4. ***, P<0.001.
Mice were divided into six groups: 1) control (n=10), 2) mite crude extract allergen delivered intratracheally (mIT) alone (n=10), 3) CMP intranasal (eIN) alone (n=12), 4) preventive-treatment group (eIN+mIT; n=12), 5) therapeutic-treatment group (mIT+eIN; n=12), and 6) preventive- and therapeutic-treatment group (eIN+mIT+eIN; n=18) (FIG. 4). All groups receiving mIT were immunized with mite crude extract allergen on days 1 and 8 and then given mite crude extract allergen intratracheally on day 15. The cIN and eIN+mIT+eIN groups received cIN from days 1 to 22, the cIN+mIT group received eIN from days 1 to 15 (before mIT), and the mIT+eIN group received eIN from days 15 (post-mIT) to 22. All mice were sacrificed on day 23. The animal use protocol was reviewed and approved by Institutional Animal Care and Use Committee (IACUC Approval No: La-95279).
The trachea was exposed and cannulated. Two washings, each consisting of 1.0 ml of phosphate-buffered saline, were introduced into the lungs via the cannula and withdrawn to collect the cells. Bronchoalveolar lavage fluid (BALF) from each wash was placed in polypropylene tubes on ice. The collected BALF was then centrifuged at 300×g for 7 min at 4° C. […] Total cell numbers were counted on a hemocytometer, and 1−5×10^3 cells were spun onto glass microscope slides (cytospin, Shandon Scientific, Cheshire, UK). […] The number of cells recovered was calculated and expressed as absolute cell numbers.
To identify the extent of inflammatory cell recruitment into the airways under allergen challenge circumstance, the amount of inflammatory cell were measured in BALF. […]

Q: For NYRWRCKNQN (CMP), which “cytotoxic effect on bronchial epithelial cell” value [1] is on record?
A: no cytotoxic effect

Q: What about the “decrease of migration activity” value (human lung cancer H460) of the same sequence?
A: 50%

Q: And the “serum mite-specific IgE level compared with mIT group” value (mite-specific IgE; eIN+mIT+eIN group, day 23)?
A: much lower

Q: And the “serum mite-specific IgE reading of mIT group compared with CMP groups” value (mite-specific IgE; mIT vs eIN+mIT, mIT+eIN and eIN+mIT+eIN groups, day 18)?
A: higher

Q: And the “eosinophil count in BALF compared with mIT group” value ([2]; eIN+mIT group)?
A: lower

Q: What about the “eosinophil count in BALF compared with mIT group” value ([2]; eIN+mIT+eIN group) of the same sequence?
A: lower

Q: And the “lymphocyte count in BALF compared with mIT group” value ([2]; eIN+mIT+eIN group)?
A: lower

Q: What about the “macrophage count in BALF compared with mIT group” value ([2]; eIN+mIT+eIN group) of the same sequence?
A: lower
